This is an account of results in ChEMBL document CHEMBL1125956, “A new potent inhibitor for angiotensin converting enzyme: (R,S)-captopril-F3” (Bioorg Med Chem Lett, 1991).

Broadly, the IC50 is the concentration that gives 50% inhibition.

This test concerns the target T1, Angiotensin-converting enzyme (Oryctolagus cuniculus, UniProt P12822).
T1 sequence (P12822 whole entry): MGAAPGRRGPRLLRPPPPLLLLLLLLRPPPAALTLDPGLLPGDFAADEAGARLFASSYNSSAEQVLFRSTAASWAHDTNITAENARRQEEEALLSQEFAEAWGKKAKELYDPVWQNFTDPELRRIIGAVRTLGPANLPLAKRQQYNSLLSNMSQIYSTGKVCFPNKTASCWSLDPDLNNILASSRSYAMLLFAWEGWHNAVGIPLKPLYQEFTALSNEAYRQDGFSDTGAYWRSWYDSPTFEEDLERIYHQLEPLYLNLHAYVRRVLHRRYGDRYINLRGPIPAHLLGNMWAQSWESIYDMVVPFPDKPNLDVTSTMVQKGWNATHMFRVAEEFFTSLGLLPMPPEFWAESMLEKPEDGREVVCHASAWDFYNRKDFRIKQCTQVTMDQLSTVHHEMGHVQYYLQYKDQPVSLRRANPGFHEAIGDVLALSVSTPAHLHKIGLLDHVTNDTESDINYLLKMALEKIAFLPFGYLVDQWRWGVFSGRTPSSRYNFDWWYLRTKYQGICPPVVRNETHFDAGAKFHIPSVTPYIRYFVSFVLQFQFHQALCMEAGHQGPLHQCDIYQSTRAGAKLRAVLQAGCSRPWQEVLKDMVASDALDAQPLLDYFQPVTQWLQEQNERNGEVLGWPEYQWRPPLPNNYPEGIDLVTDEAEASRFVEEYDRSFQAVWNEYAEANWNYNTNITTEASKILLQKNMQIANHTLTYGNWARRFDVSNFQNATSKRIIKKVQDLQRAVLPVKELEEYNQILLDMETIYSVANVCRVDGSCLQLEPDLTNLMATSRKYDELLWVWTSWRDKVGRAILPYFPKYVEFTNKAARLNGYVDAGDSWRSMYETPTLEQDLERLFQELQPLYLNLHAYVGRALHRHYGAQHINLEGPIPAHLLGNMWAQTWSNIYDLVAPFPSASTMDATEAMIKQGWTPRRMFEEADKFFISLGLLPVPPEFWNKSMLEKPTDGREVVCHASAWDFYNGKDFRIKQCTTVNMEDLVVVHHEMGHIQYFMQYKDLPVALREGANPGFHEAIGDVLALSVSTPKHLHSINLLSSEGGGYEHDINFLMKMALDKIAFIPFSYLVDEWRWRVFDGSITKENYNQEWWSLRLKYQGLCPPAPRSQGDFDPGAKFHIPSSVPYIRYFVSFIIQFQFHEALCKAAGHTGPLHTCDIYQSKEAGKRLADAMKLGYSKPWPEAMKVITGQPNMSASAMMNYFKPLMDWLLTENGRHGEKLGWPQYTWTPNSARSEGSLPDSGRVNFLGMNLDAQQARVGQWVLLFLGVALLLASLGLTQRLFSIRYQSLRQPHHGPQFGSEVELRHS
Kind of test: In vitro inhibitory activity was evaluated against angiotensin converting enzyme from rabbit in bovine buffered base.

As to `O=C(O)[C@@H]1CCCN1C(=O)[C@@H](CS)C(F)(F)F`, it took 0.29 nM to reach half-maximal inhibition (IC50). With `O=C(O)[C@@H]1CCCN1C(=O)[C@H](CS)C(F)(F)F`, half-maximal inhibition (IC50) was put at 480 nM.
